# Molecular target: T1, hNaV1.7 (Homo sapiens, UniProt Q15858)
# T1 construct: expressed in transfected cells
# Experiment: Patch voltage clamp electrophysiology (EP), Syncropatch 384PE, Nav1.7 in CHO cells;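 further: Nav1.7 stably expressed from cDNA in CHO cells, holding potential of −50 mV kept for the entire experiment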
# Type: cell-based
# Conditions: holding potential −50 mV, inhibition based on 7.5 min compound incubation, read-out: hNaV1.7 EP_SP
# T1 sequence (Q15858 1-1977 isoform Q15858-3): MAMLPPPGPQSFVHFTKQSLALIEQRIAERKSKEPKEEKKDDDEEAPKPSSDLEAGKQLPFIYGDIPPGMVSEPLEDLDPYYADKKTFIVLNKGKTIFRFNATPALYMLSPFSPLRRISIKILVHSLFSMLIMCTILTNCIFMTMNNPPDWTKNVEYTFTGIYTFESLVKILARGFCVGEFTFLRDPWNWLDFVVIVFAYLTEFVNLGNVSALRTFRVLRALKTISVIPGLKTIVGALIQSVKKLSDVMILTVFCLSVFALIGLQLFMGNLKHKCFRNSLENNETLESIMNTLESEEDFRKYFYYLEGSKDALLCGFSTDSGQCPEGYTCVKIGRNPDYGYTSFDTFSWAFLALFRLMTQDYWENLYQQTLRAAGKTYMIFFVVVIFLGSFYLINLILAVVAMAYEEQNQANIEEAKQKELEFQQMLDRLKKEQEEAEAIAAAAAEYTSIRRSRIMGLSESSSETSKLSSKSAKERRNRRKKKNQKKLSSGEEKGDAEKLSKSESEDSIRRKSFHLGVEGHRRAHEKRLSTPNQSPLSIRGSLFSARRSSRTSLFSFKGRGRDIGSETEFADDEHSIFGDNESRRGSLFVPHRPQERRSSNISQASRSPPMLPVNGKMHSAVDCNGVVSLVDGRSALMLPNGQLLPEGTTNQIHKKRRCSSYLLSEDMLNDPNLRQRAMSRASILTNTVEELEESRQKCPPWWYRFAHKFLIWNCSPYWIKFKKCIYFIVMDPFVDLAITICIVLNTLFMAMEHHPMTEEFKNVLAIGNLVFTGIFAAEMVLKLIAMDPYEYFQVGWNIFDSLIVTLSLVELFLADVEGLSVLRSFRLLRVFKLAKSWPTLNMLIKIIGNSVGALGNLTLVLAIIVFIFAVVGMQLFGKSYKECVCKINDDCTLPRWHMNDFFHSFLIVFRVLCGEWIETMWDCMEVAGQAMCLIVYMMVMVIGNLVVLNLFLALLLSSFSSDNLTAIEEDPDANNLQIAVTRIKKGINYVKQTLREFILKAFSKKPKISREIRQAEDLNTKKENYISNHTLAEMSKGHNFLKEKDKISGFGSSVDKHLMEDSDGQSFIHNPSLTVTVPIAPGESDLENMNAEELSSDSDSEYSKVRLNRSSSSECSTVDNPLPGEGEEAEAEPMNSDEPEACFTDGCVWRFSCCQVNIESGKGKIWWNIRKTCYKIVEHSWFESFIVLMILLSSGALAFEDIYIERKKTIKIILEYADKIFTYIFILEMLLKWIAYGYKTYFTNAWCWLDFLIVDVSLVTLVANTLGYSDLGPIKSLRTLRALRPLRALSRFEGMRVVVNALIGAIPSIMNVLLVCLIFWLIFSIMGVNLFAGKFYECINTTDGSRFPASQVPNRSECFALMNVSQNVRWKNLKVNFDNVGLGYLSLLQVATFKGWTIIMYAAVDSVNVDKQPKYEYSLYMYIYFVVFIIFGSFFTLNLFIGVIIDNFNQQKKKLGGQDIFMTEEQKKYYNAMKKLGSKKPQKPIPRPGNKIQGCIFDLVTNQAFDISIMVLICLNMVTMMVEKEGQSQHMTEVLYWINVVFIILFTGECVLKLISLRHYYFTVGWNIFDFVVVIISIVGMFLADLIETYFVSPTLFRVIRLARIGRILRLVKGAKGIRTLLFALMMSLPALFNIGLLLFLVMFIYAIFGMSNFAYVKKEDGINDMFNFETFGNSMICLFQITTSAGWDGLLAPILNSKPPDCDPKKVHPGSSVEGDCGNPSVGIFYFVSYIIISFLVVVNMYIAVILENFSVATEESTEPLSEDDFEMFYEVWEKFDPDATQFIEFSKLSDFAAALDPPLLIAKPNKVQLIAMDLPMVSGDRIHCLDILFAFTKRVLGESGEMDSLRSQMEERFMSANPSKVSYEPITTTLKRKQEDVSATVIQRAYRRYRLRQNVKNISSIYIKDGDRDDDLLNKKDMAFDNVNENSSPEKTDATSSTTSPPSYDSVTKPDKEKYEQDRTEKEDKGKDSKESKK
row,IC50,Structure (SMILES)
1,220 nM,"CN(C)[C@H]1CCCC[C@@H]1Oc1ccc(S(=O)(=O)NC(=O)c2cc(Cl)c(OCC3CCCC3)cc2F)c(F)c1 [Example 66, 5-chloro-4-(cyclopentylmethoxy)-N-((4-(((1S,2S)-2-(dimethylamino)-cyclohexyl)oxy)-2-fluorophenyl)sulfonyl)-2-fluorobenzamide]"
2,670 nM,"CCc1ccc(S(=O)(=O)NC(=O)c2cc(Cl)c(OCC3CCCC3)cc2F)cc1 [Example 243, 5-chloro-4-(cyclopentylmethoxy)-N-((4-ethylphenyl)sulfonyl)-2-fluorobenzamide]"
3,430 nM,"O=C(NS(=O)(=O)c1ccc(Cn2cncn2)cc1)c1cc(Cl)c(OCC2CCCC2)cc1F [Example 292, N-((4-((1H-1,2,4-triazol-1-yl)methyl)phenyl)sulfonyl)-5-chloro-4-(cyclopentylmethoxy)-2-fluorobenzamide]"
4,530 nM,"O=C(NS(=O)(=O)c1ccc2c(c1)CCCC2)c1cc(Cl)c(OCC2CCCC2)cc1F [Example 261, 5-chloro-4-(cyclopentylmethoxy)-2-fluoro-N-((5,6,7,8-tetrahydronaphthalen-2-yl)sulfonyl)benzamide]"
5,710 nM,"N#Cc1ccc(S(=O)(=O)NC(=O)c2cc(Cl)c(OCC3CCCC3)cc2F)cc1C(F)(F)F [Example 280, 5-chloro-N-((4-cyano-3-(trifluoromethyl)phenyl)sulfonyl)-4-(cyclopentylmethoxy)-2-fluorobenzamide]"
6,710 nM,"O=C(NS(=O)(=O)c1ccc2c(c1)OCCCO2)c1cc(Cl)c(OCC2CCCC2)cc1F [Example 289, 5-chloro-4-(cyclopentylmethoxy)-N-((3,4-dihydro-2H-benzo[b][1,4]dioxepin-7-yl)sulfonyl)-2-fluorobenzamide]"
7,78 nM,"O=C(NS(=O)(=O)N1CCCc2ccccc21)c1cc(Cl)c(OCC2CCCC2)cc1F [Example 14, 5-chloro-4-(cyclopentylmethoxy)-N-((3,4-dihydroquinolin-1(2H)-yl)sulfonyl)-2-fluorobenzamide]"
8,380 nM,"C[C@H]1Cc2cc(S(=O)(=O)NC(=O)c3cc(Cl)c(OCC4CCCC4)cc3F)ccc2O1 [Example 270, (S)-5-chloro-4-(cyclopentylmethoxy)-2-fluoro-N-((2-methyl-2,3-dihydrobenzofuran-5-yl)sulfonyl)benzamide]"

# Continued, compound first:
row,Structure (SMILES),IC50
1,"NC[C@@H]1CN(S(=O)(=O)NC(=O)c2cc(C3CC3)c(OCC3CCCC3)cc2F)CCO1 (single isomer, unassigned) [Example 25, 2,2,2-trifluoroacetate]",15 nM
2,"O=C(NS(=O)(=O)N1CCC(OC2CNC2)CC1)c1cc(Cl)c(OCC2CCCC2)cc1F [Example 46, N-((4-(azetidin-3-yloxy)piperidin-1-yl)sulfonyl)-5-chloro-4-(cyclopentyl-methoxy)-2-fluorobenzamide]",250 nM
3,"NCc1cccc(COc2ccc(S(=O)(=O)NC(=O)c3cc(Cl)c(OCC4CCCC4)cc3F)cc2)c1 [Example 300, N-((4-((3-(aminomethyl)benzyl)oxy)phenyl)sulfonyl)-5-chloro-4-(cyclopentylmethoxy)-2-fluorobenzamide]",3.2 nM
4,"O=C(NS(=O)(=O)c1c(F)cc(N2CCCCC2)cc1F)c1cc(Cl)c(OCC2CCCC2)cc1F [Example 58, 5-chloro-4-(cyclopentylmethoxy)-N-((2,6-difluoro-4-(piperidin-1-yl)phenyl)-sulfonyl)-2-fluorobenzamide]",320 nM
5,"COc1ccccc1-n1cc(S(=O)(=O)NC(=O)c2cc(Cl)c(OCC3CCCC3)cc2F)cn1 [Example 291, 5-chloro-4-(cyclopentylmethoxy)-2-fluoro-N-((1-(2-methoxyphenyl)-1H-pyrazol-4-yl)sulfonyl)benzamide]",350 nM
6,"O=C(NS(=O)(=O)c1ccc(OCc2ccc(F)cc2F)cc1)c1cc(Cl)c(OCC2CCCC2)cc1F [Example 317, 5-chloro-4-(cyclopentylmethoxy)-N-((4-((2,4-difluorobenzyl)oxy)phenyl)sulfonyl)-2-fluorobenzamide]",250 nM
7,"O=C(NS(=O)(=O)c1ccc2ccccc2c1F)c1cc(Cl)c(OCC2CCCC2)cc1F [Example 278, 5-chloro-4-(cyclopentylmethoxy)-2-fluoro-N-((1-fluoronaphthalen-2-yl)sulfonyl)benzamide]",960 nM
